We go through 9 molecules from US6335339B1, “Triazine antiviral compounds” (Scriptgen Pharmaceuticals, Inc., priority 1998, dated 2002).

The test system of one test is HBV εRNA. As to the kind of experiment: εRNA/oligonucleotide hybridization inhibition assay with rRNA competitor. It counts as binding, Hepatitis B virus. The conditions noted are these: for IC50: radiolabeled εRNA, 60-fold excess rRNA competitor; for Specificity: ratio RRE+rRNA IC50/εRNA+rRNA IC50, max = inactive in RRE assay. An excerpt:
One assay used in determining the activity of the compounds of the present invention is disclosed in copending U.S. patent application Ser. No. 08/709,342, filed Sep. 6, 1996, the disclosure of which is hereby incorporated herein by reference in its entirety. The assay detects the interaction between target RNA molecule and a test ligand by measuring the ligand's ability to inhibit hybridization between the RNA and a specific complementary oligonucleotide. In one embodiment, the target RNA is radiolabelled and the oligonucleotide is labeled with biotin; in this case, the extent of hybridization is determined by measuring the amount of radiolabeled RNA detected with a streptavidin/biotin-based capture system.
Concentrations of test compounds of between about 0.1 μM and about 200 μM are assayed for inhibition using radiolabeled εRNA in the absence or presence of a large excess of an unlabeled non-specific RNA competitor (such as, e.g., ribosomal RNA, rRNA). Compounds that bind εRNA non-specifically are competitively displaced by the rRNA, resulting in reduced or no inhibition of hybridization between the radiolabeled εRNA and the biotinylated oligonucleotide. Conversely, the inhibitory activity of compounds that specifically bind εRNA is not affected by the presence of the competitor rRNA.
The high throughput assays were performed in 96-well plates containing eighty drugs (5 μl, 60 μg/ml in DMSO) distributed one per well in columns 2-6 and 8-12 of the 8×12 96-well array. The remaining 16 wells in columns 1 and 7 were filled with 5 μl DMSO to serve as the control reactions. 45 μl of reaction mixture containing buffer, salts and radiolabeled target RNA were delivered on each well of the compound-containing plates to yield a 50 μl mixture containing 50 mM Tris-HCl, pH 7.5, 200 mM KCl, 5 mM MgCl2, 5 mM DTT, 6 μg/ml test compound, and 25 nM [^32 P]-labeled εRNA. The reaction was started by addition of the biotinylated oligonucleotide, 262.104 A (5 μl) to a final concentration of 100 nM. The reaction was incubated at 25° C. for 60 minutes, and then 5 μl of 0.3 mg/ml SAAP (streptavidin alkaline phosphatase conjugate, Pierce, Rockford, Ill.) was added. The reaction was incubated for an additional 30 minutes at 25° C. and filtered through 96-well format HATF nitrocellulose filters (Millipore, Bedford, Mass.) using a multiscreen vacuum manifold (Millipore, Bedford, Mass.). Subsequently, 300 μl of wash buffer (50 mM Tris-HCl, pH 7.5, 200 mM KCl) was filtered through to wash the filters. The filters were dried and supplemented with 20 μl scintillation fluid (Super Mix, Wallac Oy, Turku, Finland). The amount of hybrids formed was determined by scintillation counting of the radiolabeled εRNA retained on the filters.
The inhibitory effect of a test compound (expressed as percentage of inhibition, % Inh.) was calculated using the following formula: […]
where Ro is the average retention of hybrids in the 16 identical control reactions in columns 1 and 7 and Rx is the hybrids retained in the presence of a test drug, x.
(§1) Biotinylated oligonucleotides 262.104 A (5′-biotin-TTAGGCACAGCTTGGAGGCTTGAACAGTG-3′) and 208.92 A (5′-biotin-CGTCATTGACGCTGCGCCCA-3′) were synthetically prepared (Oligos Etc., Willsonville, Oreg.). These oligonucleotides are complementary to regions of the εRNA and RRE RNA targets, respectively.
A plasmid containing the target sequence following the bacteriophage SP6 promoter was used as a template for the synthesis of radiolabeled εRNA using [α^32 P]-UTP and SP6 RNA polymerase as described by the suppliers, e.g., Ambion, Austin, Tex., and by methods well known to those of ordinary skill in the art.
Compounds that inhibited the primary screening assay described above were individually titrated in the same assay at concentrations between 0.1 μM and 200 μM in the absence and presence of 60-fold excess rRNA as a non-specific competitor. […]

The test system of another test is HIV derived RRE RNA. As to the kind of experiment: heterologous hybridization inhibition assay with RRE RNA. The conditions noted are these: radiolabeled RRE RNA, rRNA competitor. It counts as binding.
Description: Specificity is further tested in a third assay in which the radiolabeled RNA is the HIV derived RRE RNA and the biotinylated oligonucleotide is complementary to RRE. Compounds with high specific activity for εRNA are not expected to be inhibitory in the RRE RNA based assay. The specificity of the ligand for εRNA is expressed as the ratio between the IC50 value obtained with the specific target RNA and the IC50 value obtained with a heterologous target (RRE RNA), both in the presence of competitor RNA.
as §1
Compounds that inhibited the primary screening assay described above were individually titrated in the same assay at concentrations between 0.1 μM and 200 μM in the absence and presence of 60-fold excess rRNA as a non-specific competitor. A third titration was performed in a heterologous assay using radiolabeled RRE RNA as the target and the complementary biotinylated oligonucleotide 208.92 A. From these three assays, the IC50 values and specificity for each compound was calculated.
IC50 values using rRNA competitor (from Example 1) and radiolabeled RRE RNA are shown in Table 1 for the following ligands. […] Specificity is calculated as the ratio of RRE+rRNA IC50/εRNA+rRNA IC50.

For the molecule `CCCCN(CCCC)c1nc(NN=Cc2cc(Br)cc(Br)c2OC)nc(Nc2ccc([N+](=O)[O-])cc2)n1` [Compound 72], in the test with HBV εRNA, the IC50 (as a rule, the concentration that gives 50% inhibition) came out at 120 µM and the Specificity result was “max”. Besides, the “RRE + rRNA IC50 (μM)” value in the test on HIV derived RRE RNA was “inactive”.

As for `Cc1[nH]c2ccccc2c1C=NNc1nc(Nc2ccc([N+](=O)[O-])cc2)nc(N2CCOCC2)n1` [Compound 128], in the test on HBV εRNA, the half-maximal inhibitory concentration (IC50) is 22 µM and the Specificity is 4.5. In the test with HIV derived RRE RNA, the IC50 was 99.9 µM.

Consider `Oc1ccc(C=NNc2nc(Nc3ccccc3)nc(N3CCCC3)n2)c(O)c1` [Compound 119], for which, in the test with HBV εRNA, the concentration for half-maximal inhibition (IC50) was 35 µM and the Specificity was determined as 7.1. Further, the IC50 in the test with HIV derived RRE RNA came out at 250 µM.

Turning to `COc1ccc(Nc2nc(NN=Cc3c[nH]c4ccccc34)nc(Nc3ccccc3)n2)cc1` [Compound 36], in the test on HBV εRNA, the IC50 came to 28.9 µM and the Specificity was found to be 53.8. Besides, the half-maximal inhibitory concentration (IC50) in the test on HIV derived RRE RNA came out at 1550 µM.

In the case of `O=[N+]([O-])c1ccc(Nc2nc(NN=Cc3ccc(-c4ccc([N+](=O)[O-])cc4)o3)nc(N3CCOCC3)n2)cc1` [Compound 69], in the test on HBV εRNA, the IC50 came to 70 µM and the Specificity entry is “max”. The “RRE + rRNA IC50 (μM)” value in the test with HIV derived RRE RNA is “inactive”.

On to `CCCCN(CCCC)c1nc(NN=Cc2c(C)[nH]c3ccccc23)nc(Nc2ccc([N+](=O)[O-])cc2)n1` [Compound 60], for which, in the test on HBV εRNA, the IC50 came to 100 µM and the Specificity entry is “max”. The “RRE + rRNA IC50 (μM)” value in the test with HIV derived RRE RNA was “inactive”.

As for `O=[N+]([O-])c1ccc(Nc2nc(NN=Cc3ccc(-c4ccc([N+](=O)[O-])cc4)o3)nc(Nc3ccccc3)n2)cc1` [Compound 144], in the test with HBV εRNA, the IC50 amounted to 1000 µM and the Specificity is on record as 0.1. The IC50 with HIV derived RRE RNA was 99.9 µM.

With `O=[N+]([O-])c1ccc(Nc2nc(NN=Cc3ccccc3)nc(N3CCOCC3)n2)cc1` [Compound 110], in the test with HBV εRNA, the IC50 stood at 20 µM and the Specificity is listed as 4.0. In the test on HIV derived RRE RNA, the IC50 is 79.9 µM.

As for `Cc1cc(I)cc(C=NNc2nc(Nc3ccc([N+](=O)[O-])cc3)nc(N3CCCCC3)n2)c1O` [Compound 109], in the test on HBV εRNA, the IC50 is 20 µM and the Specificity was determined as 1.8. For the same molecule, the IC50 in the test on HIV derived RRE RNA amounted to 35 µM.
